Assay results from the NIST ThermoML archive (doi:10.1021/je025641j).
Numbers after ± are expanded uncertainties.

Test: molar enthalpy of vaporization or sublimation
Settings: 298.15 K, Static calorimetry

Compound | molar enthalpy (Liquid) | molar enthalpy (Crystal)
COc1cccc(O)c1OC [2,3-dimethoxyphenol] | 76.5 ± 1.7 kJ/mol | –
COc1cccc(OC)c1O [1,3-dimethoxy-2-hydroxybenzene] | – | 98.4 ± 1.8 kJ/mol
COc1ccccc1O [2-methoxyphenol] | 62.6 ± 1.1 kJ/mol | –

Results, then the compound that gave them:

molar enthalpy (Liquid) | molar enthalpy (Crystal) | Compound
75.9 ± 1.8 kJ/mol | – | COc1cccc(O)c1 [3-methoxyphenol]
– | 101 ± 3 kJ/mol | COc1cc(O)cc(OC)c1 [3,5-dimethoxyphenol]
– | 94.4 ± 1.8 kJ/mol | COc1ccc(O)cc1 [4-methoxyphenol]
